ChEMBL document CHEMBL1201862, “PubChem BioAssay data set” (2004)
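Values below derive from 48-hour exposures of cells grown in 96-well plates, with endpoints linearly interpolated between the two concentrations bracketing the appropriate inhibition level. GI50: concentration for 50% inhibition of growth.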 The source made the active and inactive calls. No stated cut-off is given here; in the data, active = GI50 up to about 1.1 µM and inactive = higher.

Experiments:
Assay in all cases: growth of human tumour cells (NCI), 48 h
SW-620 = test system: SW-620
SNB-75 = test system: SNB-75
HCT-116 = test system: HCT-116
SF-539 = test system: SF-539
UACC-257 = test system: UACC-257
HOP-92 = test system: HOP-92
SK-MEL-2 = test system: SK-MEL-2
Malme-3M = test system: Malme-3M
SK-MEL-28 = test system: SK-MEL-28
UO-31 = test system: UO-31
NCI-H226 = test system: NCI-H226
TK-10 = test system: TK-10
LOX IMVI = test system: LOX IMVI
SF-295 = test system: SF-295
HT-29 = test system: HT-29
HCT-15 = test system: HCT-15
HOP-62 = test system: HOP-62
NCI-H522 = test system: NCI-H522

SMILES | GI50 (SW-620) | GI50 (SNB-75) | GI50 (HCT-116) | GI50 (SF-539) | GI50 (UACC-257) | GI50 (HOP-92) | GI50 (SK-MEL-2) | GI50 (Malme-3M) | GI50 (SK-MEL-28) | GI50 (UO-31) | GI50 (NCI-H226) | GI50 (TK-10) | GI50 (LOX IMVI) | GI50 (SF-295) | GI50 (HT-29) | GI50 (HCT-15) [µM] | GI50 (HOP-62) | GI50 (NCI-H522)
FC(F)(F)c1nc(-c2ccccc2Cl)[nH]c1C(F)(F)F | 1.15 µM (inactive) | 1.07 µM (active) | 0.729 µM (active) | 0.893 µM (active) | 0.646 µM (active) | 0.408 µM (active) | 0.501 µM (active) | 0.861 µM (active) | 1.21 µM (inactive) | 0.675 µM (active) | 0.61 µM (active) | 1.13 µM (inactive) | 0.459 µM (active) | 0.681 µM (active) | 0.94 µM (active) | 0.875 | 0.394 µM (active) | –
O=c1nc(NC(c2ccccc2)(c2ccccc2)c2ccccc2)ccn1CCNCCn1ccc(NC(c2ccccc2)(c2ccccc2)c2ccccc2)nc1=O | 6.64 µM (inactive) | 20.2 µM (inactive) | 3.92 µM (inactive) | 11.3 µM (inactive) | 5.82 µM (inactive) | 5.45 µM (inactive) | 2.66 µM (inactive) | 11.8 µM (inactive) | 6.07 µM (inactive) | > 100 µM (inactive) | 14.5 µM (inactive) | 26.9 µM (inactive) | 2.84 µM (inactive) | 11.5 µM (inactive) | 5.83 µM (inactive) | > 100 | 15.5 µM (inactive) | 4.66 µM (inactive)
CC1CC2C(=O)N(c3ccccc3)C(=O)C2c2c1c1ccccc1n2Cc1ccccc1 (stereo unspecified) | > 100 µM (inactive) | – | 29.3 µM (inactive) | > 100 µM (inactive) | – | 9.84 µM (inactive) | > 100 µM (inactive) | > 100 µM (inactive) | – | > 100 µM (inactive) | 33.3 µM (inactive) | – | > 100 µM (inactive) | > 100 µM (inactive) | > 100 µM (inactive) | 35.1 | > 100 µM (inactive) | 17.7 µM (inactive)
C1=C(c2ccccc2)CN(c2ccccc2)OC1 | > 100 µM (inactive) | 66.4 µM (inactive) | – | > 100 µM (inactive) | – | – | 50.6 µM (inactive) | > 100 µM (inactive) | 79.8 µM (inactive) | 32.2 µM (inactive) | > 100 µM (inactive) | > 100 µM (inactive) | > 100 µM (inactive) | – | 44.4 µM (inactive) | 77.4 | > 100 µM (inactive) | 18.6 µM (inactive)
CCOC(=O)CC[C@H](NC(=O)c1nc[nH]c1[N+](=O)[O-])C(=O)OCC | – | – | > 100 µM (inactive) | > 100 µM (inactive) | > 100 µM (inactive) | > 100 µM (inactive) | > 100 µM (inactive) | > 100 µM (inactive) | > 100 µM (inactive) | > 100 µM (inactive) | > 100 µM (inactive) | > 100 µM (inactive) | > 100 µM (inactive) | > 100 µM (inactive) | – | > 100 | > 100 µM (inactive) | > 100 µM (inactive)
CCCCCCCCCCCC(=O)OCC1OC(n2cc(F)c(=O)[nH]c2=O)C(N)C(OC(=O)CCCCCCCCCCC)C1O (stereo unspecified) | 68.4 µM (inactive) | 49.7 µM (inactive) | 88.1 µM (inactive) | 69.7 µM (inactive) | > 100 µM (inactive) | 36.2 µM (inactive) | > 100 µM (inactive) | > 100 µM (inactive) | > 100 µM (inactive) | > 100 µM (inactive) | – | > 100 µM (inactive) | 88.3 µM (inactive) | > 100 µM (inactive) | > 100 µM (inactive) | > 100 | > 100 µM (inactive) | 31.6 µM (inactive)
COC(=O)c1nc(N)nc(O)c1-c1ccc(Cl)cc1 | > 100 µM (inactive) | > 100 µM (inactive) | > 100 µM (inactive) | > 100 µM (inactive) | > 100 µM (inactive) | > 100 µM (inactive) | > 100 µM (inactive) | > 100 µM (inactive) | > 100 µM (inactive) | > 100 µM (inactive) | > 100 µM (inactive) | > 100 µM (inactive) | > 100 µM (inactive) | > 100 µM (inactive) | > 100 µM (inactive) | > 100 | > 100 µM (inactive) | > 100 µM (inactive)
CCOC(=O)N1CCC(=O)C(CNC23CC4CC(CC(C4)C2)C3)C1 (stereo unspecified) | 19.8 µM (inactive) | – | – | > 100 µM (inactive) | 23.9 µM (inactive) | 20.7 µM (inactive) | > 100 µM (inactive) | 17.7 µM (inactive) | 18.2 µM (inactive) | 51.5 µM (inactive) | > 100 µM (inactive) | > 100 µM (inactive) | 19 µM (inactive) | > 100 µM (inactive) | 22.4 µM (inactive) | – | > 100 µM (inactive) | 16.7 µM (inactive)
O=c1[nH]cc(COCCCO)c(=O)[nH]1 | > 100 µM (inactive) | > 100 µM (inactive) | > 100 µM (inactive) | > 100 µM (inactive) | > 100 µM (inactive) | > 100 µM (inactive) | > 100 µM (inactive) | > 100 µM (inactive) | > 100 µM (inactive) | > 100 µM (inactive) | > 100 µM (inactive) | > 100 µM (inactive) | > 100 µM (inactive) | > 100 µM (inactive) | > 100 µM (inactive) | > 100 | > 100 µM (inactive) | > 100 µM (inactive)
